Earlier results as cited in patent US11817195B2, “Methods for lowering blood sugar with a gliflozin sodium-glucose cotransport 2 inhibitor pharmaceutical composition” (AstraZeneca UK Limited, priority 2018, dated 2023).

Columns and labels:
[1] = at least 14 double-blind, placebo-controlled, randomized studies

Row | SMILES | incidence of hyperkalemia (patients with moderate renal impairment, Mikhail, Curr. Drug Safety 9:127-132 (2014)) | risk of hyperkalemia (administration of the drug) | efficacy to lower blood sugar [1]
1 | Cc1ccc([C@@H]2O[C@H](CO)[C@@H](O)[C@H](O)[C@H]2O)cc1Cc1ccc(-c2ccc(F)cc2)s1 [canagliflozin, (2S,3R,4R,5S,6R)-2-[3-[[5-(4-fluorophenyl)thiophen-2-yl]methyl]-4-methylphenyl]-6-(hydroxymethyl)oxane-3,4,5-triol] | higher incidence of hyperkalemia |  | 
2 | CCOc1ccc(Cc2cc([C@@H]3O[C@H](CO)[C@@H](O)[C@H](O)[C@H]3O)ccc2Cl)cc1 [dapagliflozin, (2S,3R,4R,5S,6R)-2-[4-chloro-3-[(4-ethoxyphenyl)methyl]phenyl]-6-(hydroxymethyl)oxane-3,4,5-triol] |  | not correlated with an increased risk of hyperkalemia | demonstrated
